Results from ChEMBL document CHEMBL3259561, “Search for novel histone deacetylase inhibitors. Part II: design and synthesis of novel isoferulic acid derivatives” (Bioorg Med Chem, 2014).

What was measured:
[1] = target: Histone deacetylase; assay: Inhibition of HDAC in human HeLa cell nuclear extract using acetylated lysine as substrate after 30 mins by spectrophotometric analysis; format: protein assay
[2] = tested on: HeLa; assay: cells; format: functional, cell-based; conditions: Homo sapiens, 48 h
Description: Growth inhibition of human HeLa cells after 48 hrs by MTT assay

[3] = tested on: MDA-MB-231; assay: cells; format: functional, cell-based; conditions: Homo sapiens, MDA-MB-231, 48 h
Description: Growth inhibition of human MDA-MB-231 cells after 48 hrs by MTT assay

IC50 [1]	IC50 [2]	IC50 [3]	SMILES
> 200 µM	–	–	COc1ccc(/C=C/C(=O)Nc2ccccc2N)cc1OCC(=O)Nc1cc(Br)cc(C(F)(F)F)c1
1.37 µM	13.3 µM	1.9 µM	COc1ccc(/C=C/C(=O)NO)cc1OCC(=O)Nc1ccc(Cl)c(Cl)c1
9.04 µM	–	–	COc1ccc(/C=C/C(=O)NO)cc1OCC(=O)Nc1cc(Br)cc(C(F)(F)F)c1
2.96 µM	–	–	COc1ccc(/C=C/C(=O)NO)cc1OCC(=O)Nc1cccc(C(F)(F)F)c1
56.71 µM	–	–	COc1ccc(/C=C/C(=O)Nc2ccc(C)cc2N)cc1OCC(=O)Nc1cc(C(F)(F)F)cc(C(F)(F)F)c1
> 200 µM	–	–	COc1ccc(/C=C/C(=O)Nc2ccc(C)cc2N)cc1OCC(=O)Nc1cccc(C(F)(F)F)c1
> 200 µM	–	–	COc1ccc(/C=C/C(=O)Nc2ccccc2N)cc1OCC(=O)Nc1ccc(Cl)c(Cl)c1
66.52 µM	–	–	COc1ccc(/C=C/C(=O)Nc2ccccc2N)cc1OCC(=O)Nc1ccc(F)c(Cl)c1
24.01 µM	–	–	COc1ccc(/C=C/C(=O)Nc2ccccc2N)cc1OCC(=O)Nc1cccc(F)c1
> 200 µM	–	–	COc1ccc(/C=C/C(=O)Nc2ccccc2N)cc1OCC(=O)Nc1ccc(Br)cc1
164.61 µM	–	–	COc1ccc(NC(=O)COc2cc(/C=C/C(=O)Nc3ccc(C)cc3N)ccc2OC)cc1
58.24 µM	–	–	COc1ccc(/C=C/C(=O)Nc2ccc(C)cc2N)cc1OCC(=O)Nc1ccc(Br)cc1

More lines, now with the values behind:

SMILES	IC50 [1]	IC50 [2]	IC50 [3]
COc1ccc(/C=C/C(=O)Nc2ccc(C)cc2N)cc1OCC(=O)Nc1ccccc1F	29.5 µM	–	–
COc1ccc(NC(=O)COc2cc(/C=C/C(=O)NO)ccc2OC)cc1	0.94 µM	4.87 µM	3.81 µM
COc1ccc(/C=C/C(=O)Nc2ccc(C)cc2N)cc1OCC(=O)Nc1ccc(Cl)c(Cl)c1	> 200 µM	–	–
COc1ccc(/C=C/C(=O)Nc2ccc(C)cc2N)cc1OCC(=O)Nc1ccc(F)c(Cl)c1	31.32 µM	–	–
COc1ccc(/C=C/C(=O)Nc2ccc(C)cc2N)cc1OCC(=O)Nc1cc(Br)cc(C(F)(F)F)c1	124.67 µM	–	–
COc1ccc(/C=C/C(=O)NO)cc1OCC(=O)Nc1cc(C(F)(F)F)cc(C(F)(F)F)c1	4.91 µM	–	–
COc1ccc(/C=C/C(=O)Nc2ccc(C)cc2N)cc1OCC(=O)Nc1cccc(F)c1	71.02 µM	–	–
COc1ccc(/C=C/C(=O)NO)cc1OCC(=O)Nc1ccc(F)c(Cl)c1	5.82 µM	–	–
COc1ccc(/C=C/C(=O)NO)cc1OCC(=O)Nc1ccc(Br)cc1	0.73 µM	5.39 µM	5.87 µM
COc1ccc(/C=C/C(=O)Nc2ccccc2N)cc1OCC(=O)Nc1cccc(C(F)(F)F)c1	22.16 µM	–	–
COc1ccc(/C=C/C(=O)NO)cc1OCC(=O)Nc1cccc(F)c1	2.81 µM	6.48 µM	3.41 µM
COc1ccc(NC(=O)COc2cc(/C=C/C(=O)Nc3ccccc3N)ccc2OC)cc1	49.3 µM	–	–
COc1ccc(/C=C/C(=O)Nc2ccccc2N)cc1OCC(=O)Nc1cc(C(F)(F)F)cc(C(F)(F)F)c1	> 200 µM	–	–
COc1ccc(/C=C/C(=O)Nc2ccccc2N)cc1OCC(=O)Nc1ccccc1F	15.6 µM	20.5 µM	15.5 µM
COc1ccc(/C=C/C(=O)NO)cc1OCC(=O)Nc1ccccc1F	0.57 µM	3.91 µM	15.6 µM
